According to the supplement of paper PMC10307832:

Compound: C1=CC2=NC=CN=C2C=C1/C=C/3\C(=O)NC(=O)S3 + C[C@@H](Oc1cc(-c2cnn(C3CCNCC3)c2)cnc1N)c1c(Cl)ccc(F)c1Cl [Crizotinib] (partner 1 µM)
Test: relative viability (nuclei count vs DMSO), 5 days (fraction); higher = more cells survive
Conditions: first compound 0.02 µM
In short: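 Lung cancer cell lines in 1536-well plates were dosed by pin tool the day after seeding, either with one drug alone or with a fixed anchor-drug dose plus five library-drug doses (not always all listed) in √10 steps. After 5 days, cells were fixed and their nuclei stained in one step (final 0.05% Triton X-100, 1% formaldehyde, 1 ug/ml Hoechst), then counted on 4× images. Relative viability is the nuclei count in treated wells divided by that in vehicle wells. Values are medians of duplicate plates.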

Row | Cell Line | relative viability
1 | LU99A | 0.613
2 | BEN | 0.948
3 | HARA | 0.973
4 | HCC-78 | 0.341
5 | NCI-H322M | 0.858
6 | LCLC-97TM1 | 0.391
7 | NCI-H2009 | 1.06
8 | A-427 | 0.848
9 | NCI-H661 | 0.87
10 | NCI-H1734 | 0.665
11 | NCI-H460 | 0.783
12 | NCI-H2347 | 0.679
13 | SK-LU-1 | 0.913
14 | 201T | 0.995
15 | NCI-H1915 | 0.861
16 | HCC-827 | 0.89

Row | Cell Line | relative viability
17 | LXF-289 | 0.766
18 | NCI-H23 | 0.49
19 | NCI-H647 | 0.989
20 | CAL-12T | 0.572
21 | NCI-H1651 | 0.886
22 | EPLC-272H | 1.12
23 | NCI-H2228 | 0.407
24 | NCI-H1792 | 0.936
25 | NCI-H1355 | 0.865
26 | NCI-H3122 | 0.298
27 | NCI-H1437 | 0.829
28 | NCI-H1755 | 0.747
29 | NCI-H2023 | 0.707
30 | HCC-15 | 0.822
31 | PC-14 | 0.821
32 | EKVX | 0.933

Same assay, conditions: first compound 0.06325 µM

Row | Cell Line | relative viability
33 | LU99A | 0.597
34 | BEN | 0.856
35 | HARA | 1.06
36 | HCC-78 | 0.309
37 | NCI-H322M | 0.778
38 | LCLC-97TM1 | 0.344
39 | NCI-H2009 | 1.1
40 | A-427 | 0.792
41 | NCI-H661 | 0.809
42 | NCI-H460 | 1.22
43 | NCI-H2347 | 0.645
44 | SK-LU-1 | 1.3
45 | 201T | 1.07
46 | NCI-H1915 | 0.934
47 | HCC-827 | 0.905
48 | LXF-289 | 0.735

Row | Cell Line | relative viability
49 | NCI-H23 | 0.629
50 | NCI-H647 | 1.77
51 | CAL-12T | 0.802
52 | NCI-H1651 | 0.677
53 | EPLC-272H | 1.09
54 | NCI-H2228 | 0.433
55 | NCI-H1792 | 0.872
56 | NCI-H1355 | 1.03
57 | NCI-H3122 | 0.253
58 | NCI-H1437 | 0.901
59 | NCI-H1755 | 0.786
60 | NCI-H2023 | 0.693
61 | HCC-15 | 0.897
62 | PC-14 | 0.954
63 | EKVX | 0.905

Same assay, conditions: first compound 0.2 µM

Row | Cell Line | relative viability
64 | LU99A | 0.564
65 | BEN | 0.929
66 | HARA | 1.09
67 | HCC-78 | 0.296
68 | NCI-H322M | 1.1
69 | LCLC-97TM1 | 0.375
70 | NCI-H2009 | 1.05
71 | A-427 | 0.939
72 | NCI-H661 | 0.945
73 | NCI-H1734 | 0.808
74 | NCI-H460 | 0.959
75 | NCI-H2347 | 0.672
76 | SK-LU-1 | 0.985
77 | 201T | 1.06
78 | NCI-H1915 | 0.918
79 | HCC-827 | 0.933

Row | Cell Line | relative viability
80 | LXF-289 | 0.785
81 | NCI-H23 | 0.498
82 | NCI-H647 | 1.19
83 | CAL-12T | 0.901
84 | NCI-H1651 | 0.865
85 | EPLC-272H | 1.12
86 | NCI-H2228 | 0.587
87 | NCI-H1792 | 1.02
88 | NCI-H1355 | 1.1
89 | NCI-H3122 | 0.277
90 | NCI-H1437 | 0.805
91 | NCI-H1755 | 0.86
92 | NCI-H2023 | 0.608
93 | HCC-15 | 0.817
94 | PC-14 | 0.869
95 | EKVX | 0.975

Same assay, conditions: first compound 0.6325 µM

Row | Cell Line | relative viability
96 | LU99A | 0.415
97 | BEN | 0.795
98 | HARA | 1.01
99 | HCC-78 | 0.337
100 | NCI-H322M | 0.823
101 | LCLC-97TM1 | 0.354
102 | NCI-H2009 | 1.04
103 | A-427 | 0.866
104 | NCI-H661 | 1
105 | NCI-H1734 | 0.637
106 | NCI-H460 | 0.831
107 | NCI-H2347 | 0.717
108 | SK-LU-1 | 0.903
109 | 201T | 0.994
110 | NCI-H1915 | 0.859
111 | HCC-827 | 0.804

Row | Cell Line | relative viability
112 | LXF-289 | 0.777
113 | NCI-H23 | 0.555
114 | NCI-H647 | 1.03
115 | CAL-12T | 0.661
116 | NCI-H1651 | 0.825
117 | EPLC-272H | 0.782
118 | NCI-H2228 | 0.294
119 | NCI-H1792 | 0.792
120 | NCI-H1355 | 1.02
121 | NCI-H3122 | 0.265
122 | NCI-H1437 | 0.917
123 | NCI-H1755 | 0.863
124 | NCI-H2023 | 0.61
125 | HCC-15 | 0.747
126 | PC-14 | 0.972
127 | EKVX | 0.833

Same assay, conditions: first compound 2 µM

Row | Cell Line | relative viability
128 | LU99A | 0.431
129 | BEN | 0.871
130 | HARA | 1.21
131 | HCC-78 | 0.25
132 | NCI-H322M | 0.943
133 | LCLC-97TM1 | 0.218
134 | NCI-H2009 | 1.03
135 | A-427 | 0.843
136 | NCI-H661 | 0.987
137 | NCI-H1734 | 0.611
138 | NCI-H460 | 0.853
139 | NCI-H2347 | 0.916
140 | SK-LU-1 | 1.07
141 | 201T | 1.06
142 | NCI-H1915 | 0.894
143 | HCC-827 | 1.03

Row | Cell Line | relative viability
144 | LXF-289 | 0.858
145 | NCI-H23 | 0.351
146 | NCI-H647 | 1
147 | CAL-12T | 0.683
148 | NCI-H1651 | 0.842
149 | EPLC-272H | 1.13
150 | NCI-H2228 | 0.428
151 | NCI-H1792 | 0.668
152 | NCI-H1355 | 0.976
153 | NCI-H3122 | 0.203
154 | NCI-H1437 | 1.02
155 | NCI-H1755 | 0.817
156 | NCI-H2023 | 0.613
157 | HCC-15 | 0.716
158 | PC-14 | 0.864
159 | EKVX | 0.898
